Common to all, as to format: biochemical
The target of assay [1] is T1, BTK (h) (Homo sapiens, UniProt Q06187).
T1 construct: purchased Eurofins
Nature of the assay: Radioisotope labeling kinase assay (Eurofins), BTK. To be noted: for activity at 1 µM: 1 μM compound, read-out: Inhibitory activity per unit concentration/Activity % BTK (h).

Assay [2] deals with T2, JAK3 (h) (Homo sapiens, UniProt P52333).
T2 construct: purchased Eurofins
T2 sequence (P52333 1-1124): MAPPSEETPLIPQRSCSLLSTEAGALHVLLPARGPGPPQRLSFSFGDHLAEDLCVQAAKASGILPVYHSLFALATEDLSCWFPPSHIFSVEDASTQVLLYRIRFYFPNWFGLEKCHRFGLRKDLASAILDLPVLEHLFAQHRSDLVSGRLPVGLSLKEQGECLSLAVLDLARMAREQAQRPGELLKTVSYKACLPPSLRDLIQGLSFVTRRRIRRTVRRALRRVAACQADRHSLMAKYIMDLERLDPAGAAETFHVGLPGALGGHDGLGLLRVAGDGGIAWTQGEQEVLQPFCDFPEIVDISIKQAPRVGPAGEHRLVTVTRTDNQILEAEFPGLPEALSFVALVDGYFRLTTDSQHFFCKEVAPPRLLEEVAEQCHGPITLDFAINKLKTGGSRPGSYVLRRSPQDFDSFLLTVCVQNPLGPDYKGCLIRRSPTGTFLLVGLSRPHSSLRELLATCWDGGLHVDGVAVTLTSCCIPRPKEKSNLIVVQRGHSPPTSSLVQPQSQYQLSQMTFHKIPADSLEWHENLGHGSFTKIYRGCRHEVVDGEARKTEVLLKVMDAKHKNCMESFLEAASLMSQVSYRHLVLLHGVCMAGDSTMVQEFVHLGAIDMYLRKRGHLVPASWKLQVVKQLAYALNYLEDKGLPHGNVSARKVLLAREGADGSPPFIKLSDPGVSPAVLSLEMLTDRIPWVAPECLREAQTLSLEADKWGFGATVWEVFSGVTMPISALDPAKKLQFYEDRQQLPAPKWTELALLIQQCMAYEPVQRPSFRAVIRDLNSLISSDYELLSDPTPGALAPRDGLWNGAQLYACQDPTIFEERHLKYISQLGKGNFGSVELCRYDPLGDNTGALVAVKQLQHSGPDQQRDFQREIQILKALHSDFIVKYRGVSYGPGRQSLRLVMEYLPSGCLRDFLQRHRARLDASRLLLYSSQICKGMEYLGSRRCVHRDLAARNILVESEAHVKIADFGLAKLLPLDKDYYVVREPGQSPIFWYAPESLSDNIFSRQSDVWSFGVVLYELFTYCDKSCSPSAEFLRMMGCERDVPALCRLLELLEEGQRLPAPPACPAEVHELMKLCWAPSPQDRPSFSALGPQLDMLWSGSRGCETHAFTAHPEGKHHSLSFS
Nature of the assay: Radioisotope labeling kinase assay (Eurofins), JAK3. To be noted: for activity at 1 µM: 1 μM compound, read-out: Inhibitory activity per unit concentration/Activity % JAK3 (h).

The target in assay [3] is T3, JAK1 (h) (Homo sapiens, UniProt P23458).
T3 construct: purchased Eurofins
Put plainly: Radioisotope labeling kinase assay (Eurofins), JAK1. Here is the method: (§1) An activity to a human recombinant protein kinase of a series of compounds was determined by a radioisotope labeling method, which was provided by Eurofins Company. A compound to be detected was mixed with a corresponding protein kinase buffer (20 mM propyl sulfonate (MOPS, […].), 1 mM EDTA, 0.10 β-mercaptoethanol, 0.010 Brij-35, […], and 1 mg/mL BSA), the mixture was added into a reaction system (100 μM reaction substrate […], 8 mM MOPS with a pH value of 7.0, 10 mM MgAcetate, 0.2 mM EDTA, and a certain concentration of γ-^33P-ATP). After adding an MgATP composite solution, the reaction was started at room temperature for 40 minutes, and the reaction was terminated by adding 5 μl of […] solution. Then, 10 μl of reaction solution was dropwise added onto a filter and washed with 75 mM phosphoric acid solution for three times, 5 minutes each time, then washed with methanol once again, and dried and subjected to scintillation counting.

Assay [4] has as its target T4, TrkA (h) (Homo sapiens, UniProt P04629).
T4 construct: purchased Eurofins
Put plainly: Radioisotope labeling kinase assay (Eurofins), TrkA. How it is done: as §1

The target of assay [5] is T5, JAK2 (h) (Homo sapiens, UniProt O60674).
T5 construct: purchased Eurofins
Put plainly: Radioisotope labeling kinase assay (Eurofins), JAK2. How it is done:
as §1

Assay [6] concerns the target T6, Flt3 (D835Y) (h) (Homo sapiens, UniProt P36888, D835Y).
T6 construct: purchased Eurofins
T6 sequence (P36888 27-993 D835Y): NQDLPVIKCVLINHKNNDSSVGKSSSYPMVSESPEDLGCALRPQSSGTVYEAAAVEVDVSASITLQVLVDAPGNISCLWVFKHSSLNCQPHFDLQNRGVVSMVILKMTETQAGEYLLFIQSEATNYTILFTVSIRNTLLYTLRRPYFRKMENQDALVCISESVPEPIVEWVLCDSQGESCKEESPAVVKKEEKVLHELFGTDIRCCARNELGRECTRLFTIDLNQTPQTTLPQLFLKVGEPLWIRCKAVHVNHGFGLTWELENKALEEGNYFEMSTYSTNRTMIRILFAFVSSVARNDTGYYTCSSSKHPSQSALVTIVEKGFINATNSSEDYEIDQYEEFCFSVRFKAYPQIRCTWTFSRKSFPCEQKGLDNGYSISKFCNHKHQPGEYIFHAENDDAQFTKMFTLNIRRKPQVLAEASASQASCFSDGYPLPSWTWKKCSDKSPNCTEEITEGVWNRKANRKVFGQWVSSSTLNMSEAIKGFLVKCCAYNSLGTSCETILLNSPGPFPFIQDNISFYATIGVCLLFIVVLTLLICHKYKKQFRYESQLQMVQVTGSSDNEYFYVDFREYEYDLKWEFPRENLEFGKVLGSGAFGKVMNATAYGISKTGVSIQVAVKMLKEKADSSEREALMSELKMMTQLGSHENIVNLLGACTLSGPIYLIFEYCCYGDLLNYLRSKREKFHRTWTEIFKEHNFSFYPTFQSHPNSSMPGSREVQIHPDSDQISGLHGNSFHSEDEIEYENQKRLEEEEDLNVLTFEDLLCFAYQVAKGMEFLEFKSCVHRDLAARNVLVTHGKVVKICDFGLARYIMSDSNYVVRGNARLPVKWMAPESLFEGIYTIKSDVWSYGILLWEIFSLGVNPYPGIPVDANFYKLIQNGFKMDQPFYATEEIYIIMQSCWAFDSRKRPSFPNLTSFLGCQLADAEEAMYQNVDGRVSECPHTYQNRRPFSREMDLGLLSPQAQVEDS
Put plainly: Radioisotope labeling kinase assay (Eurofins), Flt3 (D835Y). To be noted: for activity at 1 µM: 1 μM compound, read-out: Inhibitory activity per unit concentration/Activity % Flt3 (D835Y) (h).

13 compounds from patent publication US20240425518A1, “N-MACROCYCLIC AMIDE COMPOUNDS, PREPARATION METHODS THEREOF AND APPLICATIONS THEREOF AS MEDICAMENTS” (Chengdu FANXI Biopharma Co., Ltd., priority 2023, published 2024) can be followed below.

T1 sequence (Q06187 whole entry): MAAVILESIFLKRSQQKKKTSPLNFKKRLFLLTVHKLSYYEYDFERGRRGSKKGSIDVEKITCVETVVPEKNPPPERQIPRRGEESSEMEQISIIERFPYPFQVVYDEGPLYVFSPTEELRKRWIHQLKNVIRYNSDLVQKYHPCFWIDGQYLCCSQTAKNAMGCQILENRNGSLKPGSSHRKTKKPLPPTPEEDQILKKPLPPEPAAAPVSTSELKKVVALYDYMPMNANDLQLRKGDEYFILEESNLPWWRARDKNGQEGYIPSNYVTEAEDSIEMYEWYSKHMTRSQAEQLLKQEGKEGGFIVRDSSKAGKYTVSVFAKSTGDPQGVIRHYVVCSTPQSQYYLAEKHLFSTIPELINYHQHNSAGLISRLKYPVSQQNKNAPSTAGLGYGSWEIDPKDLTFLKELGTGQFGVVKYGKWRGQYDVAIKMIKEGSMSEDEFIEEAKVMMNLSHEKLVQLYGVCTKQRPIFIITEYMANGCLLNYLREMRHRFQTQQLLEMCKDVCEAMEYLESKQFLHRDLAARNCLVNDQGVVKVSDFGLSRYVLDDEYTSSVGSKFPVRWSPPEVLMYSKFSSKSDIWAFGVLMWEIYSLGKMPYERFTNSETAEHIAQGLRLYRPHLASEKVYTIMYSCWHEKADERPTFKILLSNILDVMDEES
T5 sequence (O60674 whole entry): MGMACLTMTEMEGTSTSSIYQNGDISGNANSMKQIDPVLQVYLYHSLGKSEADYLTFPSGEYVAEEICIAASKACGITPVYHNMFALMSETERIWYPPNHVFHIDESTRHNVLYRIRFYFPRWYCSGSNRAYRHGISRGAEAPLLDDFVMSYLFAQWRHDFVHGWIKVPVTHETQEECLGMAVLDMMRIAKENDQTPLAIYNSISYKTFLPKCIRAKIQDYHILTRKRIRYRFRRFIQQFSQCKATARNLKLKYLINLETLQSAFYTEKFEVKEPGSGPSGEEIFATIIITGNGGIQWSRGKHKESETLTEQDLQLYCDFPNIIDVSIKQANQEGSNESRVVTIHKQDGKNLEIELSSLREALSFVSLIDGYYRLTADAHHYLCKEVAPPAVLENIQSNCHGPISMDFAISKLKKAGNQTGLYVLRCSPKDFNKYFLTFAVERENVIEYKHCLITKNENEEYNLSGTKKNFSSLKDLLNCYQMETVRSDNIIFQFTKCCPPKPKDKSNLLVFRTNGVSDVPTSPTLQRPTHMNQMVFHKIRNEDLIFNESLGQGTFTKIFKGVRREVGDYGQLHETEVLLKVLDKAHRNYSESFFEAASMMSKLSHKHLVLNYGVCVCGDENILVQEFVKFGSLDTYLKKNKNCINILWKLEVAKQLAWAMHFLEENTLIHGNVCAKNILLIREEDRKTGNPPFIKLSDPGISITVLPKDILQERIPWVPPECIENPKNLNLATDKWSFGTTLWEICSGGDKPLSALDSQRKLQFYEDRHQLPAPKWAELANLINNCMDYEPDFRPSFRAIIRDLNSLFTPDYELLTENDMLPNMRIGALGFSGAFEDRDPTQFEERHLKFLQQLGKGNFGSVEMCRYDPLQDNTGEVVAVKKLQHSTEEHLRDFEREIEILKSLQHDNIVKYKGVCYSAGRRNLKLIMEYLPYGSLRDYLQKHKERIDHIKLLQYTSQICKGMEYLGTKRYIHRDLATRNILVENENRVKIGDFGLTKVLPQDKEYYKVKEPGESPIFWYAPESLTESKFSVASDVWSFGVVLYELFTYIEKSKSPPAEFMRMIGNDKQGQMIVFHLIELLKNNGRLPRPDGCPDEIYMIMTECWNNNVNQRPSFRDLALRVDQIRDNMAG
T4 sequence (P04629 33-796): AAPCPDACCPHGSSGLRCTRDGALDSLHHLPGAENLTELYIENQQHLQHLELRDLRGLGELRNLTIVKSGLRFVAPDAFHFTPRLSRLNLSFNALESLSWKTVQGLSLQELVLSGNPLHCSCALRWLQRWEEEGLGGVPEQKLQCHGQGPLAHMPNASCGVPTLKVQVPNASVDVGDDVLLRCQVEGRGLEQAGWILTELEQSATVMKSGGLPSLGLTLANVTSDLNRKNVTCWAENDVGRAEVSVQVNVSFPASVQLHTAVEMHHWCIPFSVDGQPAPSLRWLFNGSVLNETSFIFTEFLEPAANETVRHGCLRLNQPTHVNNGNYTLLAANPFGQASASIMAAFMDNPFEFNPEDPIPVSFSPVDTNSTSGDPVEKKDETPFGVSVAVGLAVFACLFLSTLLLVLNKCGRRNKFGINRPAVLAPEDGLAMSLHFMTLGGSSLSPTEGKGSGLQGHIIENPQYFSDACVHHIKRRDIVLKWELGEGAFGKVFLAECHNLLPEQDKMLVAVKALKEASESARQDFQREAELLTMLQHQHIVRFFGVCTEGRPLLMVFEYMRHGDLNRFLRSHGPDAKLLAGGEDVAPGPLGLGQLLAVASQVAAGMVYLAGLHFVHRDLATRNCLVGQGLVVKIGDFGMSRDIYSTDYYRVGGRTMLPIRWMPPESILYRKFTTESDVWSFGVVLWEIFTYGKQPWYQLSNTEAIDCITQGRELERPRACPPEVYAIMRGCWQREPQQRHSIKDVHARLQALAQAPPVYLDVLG
T3 sequence (P23458 whole entry): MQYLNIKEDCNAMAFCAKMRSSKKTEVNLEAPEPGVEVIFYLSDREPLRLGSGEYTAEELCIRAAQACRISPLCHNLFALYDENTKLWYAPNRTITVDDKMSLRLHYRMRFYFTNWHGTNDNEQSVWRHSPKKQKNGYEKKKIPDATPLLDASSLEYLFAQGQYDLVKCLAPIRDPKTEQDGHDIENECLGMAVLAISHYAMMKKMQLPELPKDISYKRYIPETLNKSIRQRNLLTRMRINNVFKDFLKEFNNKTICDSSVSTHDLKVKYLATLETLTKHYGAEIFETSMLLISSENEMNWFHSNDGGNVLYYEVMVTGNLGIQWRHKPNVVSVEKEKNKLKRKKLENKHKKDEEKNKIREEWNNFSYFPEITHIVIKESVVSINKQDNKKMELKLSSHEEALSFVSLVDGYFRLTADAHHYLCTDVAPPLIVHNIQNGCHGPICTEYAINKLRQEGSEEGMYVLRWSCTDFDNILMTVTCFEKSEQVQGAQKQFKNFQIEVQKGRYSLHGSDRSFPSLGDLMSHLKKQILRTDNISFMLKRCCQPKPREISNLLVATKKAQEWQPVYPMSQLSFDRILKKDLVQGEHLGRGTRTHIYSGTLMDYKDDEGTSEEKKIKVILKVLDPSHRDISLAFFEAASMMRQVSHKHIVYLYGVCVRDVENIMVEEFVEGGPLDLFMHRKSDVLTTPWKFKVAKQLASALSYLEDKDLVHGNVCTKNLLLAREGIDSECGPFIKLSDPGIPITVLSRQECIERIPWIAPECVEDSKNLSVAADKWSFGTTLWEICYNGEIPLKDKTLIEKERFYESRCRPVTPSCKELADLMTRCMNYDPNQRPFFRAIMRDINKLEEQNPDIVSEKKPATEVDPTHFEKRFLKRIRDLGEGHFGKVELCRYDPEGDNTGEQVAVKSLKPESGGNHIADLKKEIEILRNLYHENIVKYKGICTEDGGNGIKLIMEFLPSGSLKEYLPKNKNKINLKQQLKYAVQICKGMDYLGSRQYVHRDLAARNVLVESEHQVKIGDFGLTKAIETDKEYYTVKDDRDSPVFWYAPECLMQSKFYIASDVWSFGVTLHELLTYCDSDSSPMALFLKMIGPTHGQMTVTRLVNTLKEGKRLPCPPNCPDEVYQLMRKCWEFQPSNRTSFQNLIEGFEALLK

With `O=C(/C=C/CN1CCCC1)Nc1cc2cc(c1)Nc1nccc(n1)-c1cccc(c1)COC/C=C/COC2` [XVI-1], the IC50 (as a rule, the point on the concentration scale where inhibition reaches its midpoint) in assay [1] was 0.029 µM; in assay [3] it was 0.069 µM; in assay [4], 0.001 µM; in assay [5], 0.009 µM; in assay [6] it was 0.003 µM. Also, the activity at 1 µM in assay [1] was 2%; in assay [2] it was 9%; in assay [6] it was -1%.

Turning to `O=C(O)/C=C/C(=O)Nc1cc2cc(c1)Nc1nccc(n1)-c1cccc(c1)COC/C=C/COC2` [XVI-9], the activity at 1 µM came out at 62% in assay [1], 4% in assay [2] and 1% in assay [6]. Besides, the IC50 worked out at 0.017 µM in assay [2]; 0.019 µM in assay [3]; 0.003 µM in assay [4]; 0.007 µM in assay [5]; 0.005 µM in assay [6].

For the compound `O=C(/C=C/C(=O)N1CCNCC1)Nc1cc2cc(c1)Nc1nccc(n1)-c1cccc(c1)COC/C=C/COC2` [XVI-11], the activity at 1 µM was determined as 18% in assay [1], 6% in assay [2] and 1% in assay [6]. Also, the IC50 was determined as 0.151 µM in assay [2]; 0.167 µM in assay [3]; 0.021 µM in assay [4]; 0.038 µM in assay [5]; 0.006 µM in assay [6].

`C/C=C/C(=O)Nc1cc2cc(c1)Nc1nccc(n1)-c1cccc(c1)COC/C=C/COC2` [XVI-4]: the IC50 in assay [1] was determined as 0.238 µM; in assay [3] it was 0.044 µM; in assay [4] it was 0.002 µM; in assay [5], 0.01 µM; in assay [6] it was 0.01 µM. In addition, the activity at 1 µM is 9% in assay [1], 11% in assay [2] and -1% in assay [6].

`O=C(/C=C/C(=O)N1CCOCC1)Nc1cc2cc(c1)Nc1nccc(n1)-c1cccc(c1)COC/C=C/COC2` [XVI-10]: the activity at 1 µM is 31% in assay [1], 2% in assay [2] and 5% in assay [6]. Moreover, the IC50 in assay [2] was 0.044 µM; in assay [3], 0.089 µM; in assay [4], 0.016 µM; in assay [5], 0.017 µM; in assay [6] it was 0.004 µM.

In the case of `C1=C/COCc2cccc(c2)-c2ccnc(n2)Nc2cc(cc(OC/C=C/CN3CCCC3)c2)COC/1` [XVI-12], the activity at 1 µM came out at 38% in assay [1], 26% in assay [2] and 7% in assay [6]. The IC50 in assay [3] came out at 0.492 µM; in assay [4], 0.018 µM; in assay [5], 0.124 µM; in assay [6] it was 0.003 µM.

`O=C(/C=C/CN1CCOCC1)Nc1cc2cc(c1)Nc1nccc(n1)-c1cccc(c1)COC/C=C/COC2` [XVI-3]: the IC50 in assay [1] amounted to 0.04 µM; in assay [3] it was 0.044 µM; in assay [4], 0.002 µM; in assay [5], 0.006 µM; in assay [6] it was 0.005 µM. Besides, the activity at 1 µM in assay [1] is 7%; in assay [2], 8%; in assay [6], 1%.

`C/C=C/C(=O)Nc1cc2cc(c1)Nc1nccc(n1)-c1cccc(c1)COC/C=C/CN(C)C2` [XVI-28]: the IC50 in assay [1] amounted to 1.47 µM; in assay [3], 0.04 µM; in assay [4] it was 0.02 µM; in assay [5] it was 0.086 µM; in assay [6], 0.02 µM. For the same compound, the activity at 1 µM in assay [1] turned out to be 57%; in assay [2] it was 51%; in assay [6], 1%.

With `C#CC(=O)Nc1cc2cc(c1)Nc1nccc(n1)-c1cccc(c1)COC/C=C/COC2` [XVII-1], the activity at 1 µM in assay [1] is 8%; in assay [2], 16%; in assay [6], -1%. Also, the IC50 in assay [3] amounted to 0.033 µM; in assay [4], 0.002 µM; in assay [5], 0.013 µM; in assay [6] it was 0.007 µM.

As for `CN(C)C/C=C/C(=O)Nc1cc2cc(c1)Nc1nccc(n1)-c1cccc(c1)COC/C=C/COC2` [XVI-8], the IC50 was 0.048 µM in assay [1]; 0.262 µM in assay [3]; 0.003 µM in assay [4]; 0.029 µM in assay [5]; 0.009 µM in assay [6]. The activity at 1 µM in assay [1] was 9%; in assay [2] it was 19%; in assay [6], -2%.

For `Nc1cc2cc(c1)Nc1nccc(n1)-c1cccc(c1)COC/C=C/COC2` [XIII-1], the IC50 in assay [1] is 0.157 µM; in assay [3] it was 0.017 µM; in assay [4] it was 0.002 µM; in assay [5] it was 0.006 µM; in assay [6], 0.009 µM. Further, the activity at 1 µM in assay [1] is 6%; in assay [2], 10%; in assay [6], -1%.

As for `CN(C)C/C=C/C(=O)Nc1cc2cc(c1)Nc1nccc(n1)-c1cccc(c1)COC/C=C/CN(C)C2` [XVI-26], the IC50 in assay [1] stood at 1.25 µM; in assay [3], 0.136 µM; in assay [4], 0.028 µM; in assay [5] it was 0.328 µM; in assay [6], 0.017 µM. Also, the figures for the activity at 1 µM in assay [1], in assay [2] and in assay [6] were 50%, 74% and 0%, respectively.

Consider `C=CC(=O)Nc1cc2cc(c1)Nc1nccc(n1)-c1cccc(c1)COC/C=C/COC2` [XVI-6], for which the IC50 in assay [1] was found to be 0.348 µM; in assay [3], 0.106 µM; in assay [4], 0.002 µM; in assay [5] it was 0.016 µM; in assay [6] it was 0.01 µM. Also, the activity at 1 µM in assay [1] was 16%; in assay [2], 16%; in assay [6], -1%.
